Experimental data published in patent publication US20230406843A1, “Progranulin Modulators and Methods of Using the Same” (ARKUDA THERAPEUTICS, priority 2020, published 2023).

test system: progranulin; experiment: Progranulin induction cellular assay (ELISA of secreted mouse PGRN); assay type: cell-based; conditions: Mus musculus, BV-2, read-out: EC50 μM
Method in brief: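 Secreted mouse PGRN in culture medium is measured by ELISA. Cells tested are BV-2, primary cortical neurons and primary microglia. BV-2 cells are plated a day ahead, allowed 1 h to attach, then incubated 16 h.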

Row | SMILES | EC50
1 | CCNC[C@@]1(O)CO[C@H](C(=O)N2CCc3ccccc3[C@@H]2c2ccc(F)cc2)C1 [Compound 5031, ((2S,4R)-4-((ethylamino)methyl)-4-hydroxytetrahydrofuran-2-yl)((S)-1-(4-fluorophenyl)-3,4-dihydroisoquinolin-2(1H)-yl)methanone] | 0.326 µM

same assay, conditions: progranulin induction assay; mouse pMG, primary cortical neurons and BV-2 cell lines named, cell type not given; ELISA-based readout; read-out: EC50

Row | SMILES | EC50
2 | O=C([C@H]1C[C@@H]2NCCN[C@H]2CO1)N1CCc2ccccc2[C@@H]1c1ccc(F)cc1 [Compound 5461, ((S)-1-(4-fluorophenyl)-3,4-dihydroisoquinolin-2(1H)-yl)((4aR,7R,8aS)-octahydro-2H-pyrano[3,4-b]pyrazin-7-yl)methanone] | 0.01 µM
3 | O=C([C@@H]1CNCCO1)N1CCc2ccccc2[C@@H]1c1ccc(F)cc1 [Compound 5406, ((S)-1-(4-fluorophenyl)-3,4-dihydroisoquinolin-2(1H)-yl)((S)-morpholin-2-yl)methanone] | 0.715 µM
4 | O=C([C@@H]1CNCCCO1)N1CCc2ccccc2[C@@H]1c1ccc(F)cc1 (single isomer, unassigned) [Compound 5091] | 0.408 µM
5 | N[C@@H]1CC[C@@H](C(=O)N2CCc3ccccc3[C@H]2c2ccc(F)cc2F)OC1 (single isomer, unassigned) [Compound 5019] | 0.099 µM
6 | CCCN1CCN[C@H]2C[C@H](C(=O)N3CCc4ccccc4[C@@H]3c3ccc(F)cc3)OC[C@@H]21 [Compound 5600] | 0.021 µM
7 | N[C@H]1C[C@H](C(=O)N2CCc3ccccc3[C@@H]2c2ccc(F)cc2)OC[C@H]1OC(F)F [Compound 5443, ((2R,4S,5S)-4-amino-5-(difluoromethoxy)tetrahydro-2H-pyran-2-yl)((S)-1-(4-fluorophenyl)-3,4-dihydroisoquinolin-2(1H)-yl)methanone] | 0.151 µM
8 | CCCN[C@H]1C[C@H](C(=O)N2CCc3ccccc3[C@@H]2c2ccc(F)cc2)OC[C@@H]1OC [Compound 5579] | 0.05 µM
9 | C[C@H]1C[C@@H](C(=O)N2CCc3ccccc3[C@@H]2c2ccc(F)cc2)OC[C@@H]1N [Compound 5076, ((2S,4S,5R)-5-amino-4-methyltetrahydro-2H-pyran-2-yl)((S)-1-(4-fluorophenyl)-3,4-dihydroisoquinolin-2(1H)-yl)methanone] | 0.321 µM
10 | N[C@@H]1CO[C@@H](C(=O)N2CCc3ccccc3[C@@H]2c2ccc(F)cc2)C[C@@H]1OC(F)F [Compound 5089, ((2R,4S,5R)-5-amino-4-(difluoromethoxy)tetrahydro-2H-pyran-2-yl)((S)-1-(4-fluorophenyl)-3,4-dihydroisoquinolin-2(1H)-yl)methanone] | 0.062 µM
11 | N[C@H]1C[C@H](C(=O)N2CCc3ccccc3[C@@H]2c2ccc(F)cc2)OC[C@@H]1OC1CC1 [Compound 5530, ((2R,4S,5R)-4-amino-5-cyclopropoxytetrahydro-2H-pyran-2-yl)((S)-1-(4-fluorophenyl)-3,4-dihydroisoquinolin-2(1H)-yl)methanone] | 0.0003 µM
12 | CS(=O)(=O)N[C@@H]1CO[C@@H](C(=O)N2CCc3ccccc3[C@@H]2c2ccc(F)cc2)C[C@@H]1N [Compound 5428, N-((3S,4S,6R)-4-amino-6-((S)-1-(4-fluorophenyl)-1,2,3,4-tetrahydroisoquinoline-2-carbonyl)tetrahydro-2H-pyran-3-yl)methanesulfonamide] | > 10 µM
13 | COC[C@@H]1CN[C@H]2C[C@H](C(=O)N3CCc4ccccc4[C@@H]3c3ccc(F)cc3)OC[C@@H]2O1 [Compound 5566] | > 0.3 µM
14 | O=C([C@@H]1CCNCCO1)N1CCc2ccccc2[C@@H]1c1ccc(F)cc1 (single isomer, unassigned) [Compound 5045] | 0.078 µM
15 | C[C@@H]1C[C@@H](C(=O)N2CCc3ccccc3[C@@H]2c2ccc(F)cc2)OC[C@@H]1N [Compound 5084, ((2S,4R,5R)-5-amino-4-methyltetrahydro-2H-pyran-2-yl)((S)-1-(4-fluorophenyl)-3,4-dihydroisoquinolin-2(1H)-yl)methanone] | 0.18 µM
16 | CC(C)[C@@H]1CN[C@H]2C[C@H](C(=O)N3CCc4ccccc4[C@@H]3c3ccc(F)cc3)OC[C@@H]2O1 [Compound 5567] | 0.07 µM
17 | N[C@H]1CO[C@@H](C(=O)N2CCc3ccccc3[C@@H]2c2ccc(F)cc2)OC1 [Compound 5049, (cis-5-amino-1,3-dioxan-2-yl)((S)-1-(4-fluorophenyl)-3,4-dihydroisoquinolin-2(1H)-yl)methanone] | 0.258 µM
18 | C=CCN[C@H]1C[C@H](C(=O)N2CCc3ccccc3[C@@H]2c2ccc(F)cc2)OC[C@@H]1OC [Compound 5578] | 0.03 µM
19 | NC[C@H]1CC[C@H](C(=O)N2CCc3ccccc3[C@@H]2c2ccc(F)cc2)O1 [Compound 5002, ((2R,5R)-5-(aminomethyl)tetrahydrofuran-2-yl)((S)-1-(4-fluorophenyl)-3,4-dihydroisoquinolin-2(1H)-yl)methanone] | 0.278 µM

Row | SMILES | EC50
20 | CCO[C@H]1CO[C@@H](C(=O)N2CCc3ccccc3[C@@H]2c2ccc(F)cc2)C[C@@H]1NC [Compound 5509, ((2R,4S,5R)-5-ethoxy-4-(methylamino)tetrahydro-2H-pyran-2-yl)((S)-1-(4-fluorophenyl)-3,4-dihydroisoquinolin-2(1H)-yl)methanone] | 0.001 µM
21 | CCS(=O)(=O)[C@H]1CO[C@@H](C(=O)N2CCc3ccccc3[C@@H]2c2ccc(F)cc2)C[C@@H]1N [Compound 5524, ((2R,4S,5R)-4-amino-5-(ethylsulfonyl)tetrahydro-2H-pyran-2-yl)((S)-1-(4-fluorophenyl)-3,4-dihydroisoquinolin-2(1H)-yl)methanone] | 0.016 µM
22 | O=C([C@H]1OCCNC[C@H]1O)N1CCc2ccccc2[C@@H]1c1ccc(F)cc1 (single isomer, unassigned) [Compound 5246] | 0.1 µM
23 | NCC1COC(C(=O)N2CCc3ccccc3[C@@H]2c2ccc(F)cc2)C1 (mixture of isomers) [Compound 5014, ((2R)-4-(aminomethyl)tetrahydrofuran-2-yl)((S)-1-(4-fluorophenyl)-3,4-dihydroisoquinolin-2(1H)-yl)methanone] | 0.501 µM
24 | C[C@@H]1CO[C@@H](C(=O)N2CCc3ccccc3[C@@H]2c2ccc(F)cc2)C[C@@H]1N [Compound 5519, ((2R,4S,5S)-4-amino-5-methyltetrahydro-2H-pyran-2-yl)((S)-1-(4-fluorophenyl)-3,4-dihydroisoquinolin-2(1H)-yl)methanone] | 0.041 µM
25 | CCO[C@@H]1CO[C@@H](C(=O)N2CCc3ccccc3[C@@H]2c2ccc(F)cc2F)C[C@@H]1N [Compound 5262] | 0.044 µM
26 | CCO[C@H]1C[C@H](C(=O)N2CCc3ccccc3[C@@H]2c2ccc(F)cc2)OC[C@H]1N [Compound 5088, ((2R,4S,5R)-5-amino-4-ethoxytetrahydro-2H-pyran-2-yl)((S)-1-(4-fluorophenyl)-3,4-dihydroisoquinolin-2(1H)-yl)methanone] | 0.074 µM
27 | O=C1N[C@H]2C[C@H](C(=O)N3CCc4ccccc4[C@@H]3c3ccc(F)cc3)OC[C@H]2O1 [Compound 5079, (3aS,6R,7aS)-6-((S)-1-(4-fluorophenyl)-1,2,3,4-tetrahydroisoquinoline-2-carbonyl)hexahydro-2H-pyrano[4,3-d]oxazol-2-one] | > 10 µM
28 | C[C@]1(C(=O)N2CCc3ccccc3[C@@H]2c2ccc(F)cc2)OCCNC[C@@H]1O [Compound 5506] | 0.398 µM
29 | NCC1(O)CCO[C@@H](C(=O)N2CCc3ccccc3[C@@H]2c2ccc(F)cc2)C1 (stereo in doubt) [Compound 5540, ((2R,4R)-4-(aminomethyl)-4-hydroxytetrahydro-2H-pyran-2-yl)((S)-1-(4-fluorophenyl)-3,4-dihydroisoquinolin-2(1H)-yl)methanone] | 0.21 µM
30 | CC[C@H]1CO[C@@H](C(=O)N2CCc3ccccc3[C@@H]2c2ccc(F)cc2)C[C@@H]1N [Compound 5526, ((2R,4S,5R)-4-amino-5-ethyltetrahydro-2H-pyran-2-yl)((S)-1-(4-fluorophenyl)-3,4-dihydroisoquinolin-2(1H)-yl)methanone] | 0.006 µM
31 | CCN[C@H]1C[C@H](C(=O)N2CCc3ccccc3[C@@H]2c2ccc(F)cc2)OC[C@@H]1O [Compound 5587] | 0.194 µM
32 | N[C@H]1C[C@H](C(=O)N2CCc3ccccc3[C@@H]2c2ccc(F)cc2)OC[C@@H]1O [Compound 5055, ((2R,4S,5R)-4-amino-5-hydroxytetrahydro-2H-pyran-2-yl)((S)-1-(4-fluorophenyl)-3,4-dihydroisoquinolin-2(1H)-yl)methanone] | 0.056 µM
33 | N[C@H]1C[C@H](C(=O)N2CCc3ccccc3[C@@H]2c2ccc(F)cc2)OC[C@H]1F [Compound 5087, ((2R,4S,5S)-4-amino-5-fluorotetrahydro-2H-pyran-2-yl)((S)-1-(4-fluorophenyl)-3,4-dihydroisoquinolin-2(1H)-yl)methanone] | 0.0421 µM
34 | O=C([C@H]1C[C@](O)(CNCCO)CO1)N1CCc2ccccc2[C@@H]1c1ccc(F)cc1 [Compound 5041, ((S)-1-(4-fluorophenyl)-3,4-dihydroisoquinolin-2(1H)-yl)((2R,4S)-4-hydroxy-4-(((2-hydroxyethyl)amino)methyl)tetrahydrofuran-2-yl)methanone] | 0.294 µM
35 | O=C([C@H]1CC[C@@H](NCCO)CO1)N1CCc2ccccc2[C@@H]1c1ccc(F)cc1 [Compound 5211, ((S)-1-(4-fluorophenyl)-3,4-dihydroisoquinolin-2(1H)-yl)((2R,5R)-5-((2-hydroxyethyl)amino)tetrahydro-2H-pyran-2-yl)methanone] | 0.209 µM
36 | CCCO[C@H]1CO[C@@H](C(=O)N2CCc3ccccc3[C@@H]2c2ccc(F)cc2)C[C@@H]1N [Compound 5502, ((2R,4S,5R)-4-amino-5-propoxytetrahydro-2H-pyran-2-yl)((S)-1-(4-fluorophenyl)-3,4-dihydroisoquinolin-2(1H)-yl)methanone] | 0.001 µM
37 | O=C([C@H]1C[C@@H]2NC=N[C@@H]2CO1)N1CCc2ccccc2[C@@H]1c1ccc(F)cc1 [Compound 5430, ((S)-1-(4-fluorophenyl)-3,4-dihydroisoquinolin-2(1H)-yl)((3aS,6R,7aS)-1,3a,4,6,7,7a-hexahydropyrano[3,4-d]imidazol-6-yl)methanone] | > 0.3 µM
